Data on one compound can be found in patent US7736861B1, “Tivozanib response prediction” (AVEO Pharmaceuticals, Inc., priority 2009, dated 2010).

One assay addresses VEGF receptor 3 (Homo sapiens, UniProt P35916). The note with it: Nakamura et al., 2006; cited from earlier work.
The test system of the next assay is preclinical models. The note with it: Nakamura et al., 2006; cited from earlier work.
For assay [1] the following is noted: 272-patient Phase 2 clinical trial; Bhargava et al., 2009; cited from earlier work.
Assay [2] concerns murine breast tumors (Her2-dependent, BH archive). Description: murine breast tumor response to tivozanib (BH archive tumors transplanted subcutaneously in NCr nude mice). It counts as in vivo, mouse. An excerpt: A library of more than 100 murine breast tumors (BH archive) was used to identify tumors that are sensitive to tivozanib (responders) and tumors that are resistant to tivozanib (non-responders). The BH archive was established by in vivo propagation and cryopreservation of primary tumor material from more than 100 spontaneous murine breast tumors derived from engineered chimeric mice that develop Her2-dependent, inducible spontaneous breast tumors. The mice were produced essentially as follows.
Tumor cells were isolated by physical disruption of the tumors using cell strainers. Typically 1×10^5 cells were mixed with matrigel (50:50 volume) and injected subcutaneously into female NCr nu/nu mice on upper dorsal region between the shoulder blades. When these tumors grew to approximately 500 mm^3, which typically required 2 to 4 weeks, they were collected for further propagation, drug response testing, and analysis. Analysis included microarray profiling, general histopathology, and IHC (CD31 for tumor vasculature, Ki67 for tumor cell proliferation).
Evaluation of tumor response to tivozanib was performed essentially as follows. Subcutaneously transplanted tumors were established by injecting physically disrupted tumor cells (mixed with Matrigel) into 7 week-old female NCr nude mice. When the tumors reached approximately 200-400 mm^3, 30 tumor-bearing mice were randomized into three groups. Group 1 received vehicle. Group 2 received tivozanib at 5 mg/kg daily by oral gavage. Group 3 received tivozanib at 20 mg/kg daily by oral gavage. Tumors were measured twice per week by a caliper, and tumor volume was calculated. At the end of the treatment, tumors were collected for histopathological analysis and IHC analysis.
Based on tumor growth inhibition and typical histopathological and IHC (CD31) characteristics for angiogenesis inhibition, responders and non-responders were identified. […] The variation in response was expected, because the mouse model tumors had arisen spontaneously, and therefore they were expected to contain differing sets of random mutations that had led to tumorigenesis, including tumor angiogenesis. Such variation in response was desirable, because it was similar to the variation in naturally occurring human tumors, and thus enabled identification of tivozanib-responsive tumors and tivozanib-resistant tumors for use in identifying the molecular signature or tivozanib responsiveness.

Where [3] appears, read: of 26 individual murine breast tumors, FIG. 1.

Chain of VEGF receptor 3 (P35916 25-1363): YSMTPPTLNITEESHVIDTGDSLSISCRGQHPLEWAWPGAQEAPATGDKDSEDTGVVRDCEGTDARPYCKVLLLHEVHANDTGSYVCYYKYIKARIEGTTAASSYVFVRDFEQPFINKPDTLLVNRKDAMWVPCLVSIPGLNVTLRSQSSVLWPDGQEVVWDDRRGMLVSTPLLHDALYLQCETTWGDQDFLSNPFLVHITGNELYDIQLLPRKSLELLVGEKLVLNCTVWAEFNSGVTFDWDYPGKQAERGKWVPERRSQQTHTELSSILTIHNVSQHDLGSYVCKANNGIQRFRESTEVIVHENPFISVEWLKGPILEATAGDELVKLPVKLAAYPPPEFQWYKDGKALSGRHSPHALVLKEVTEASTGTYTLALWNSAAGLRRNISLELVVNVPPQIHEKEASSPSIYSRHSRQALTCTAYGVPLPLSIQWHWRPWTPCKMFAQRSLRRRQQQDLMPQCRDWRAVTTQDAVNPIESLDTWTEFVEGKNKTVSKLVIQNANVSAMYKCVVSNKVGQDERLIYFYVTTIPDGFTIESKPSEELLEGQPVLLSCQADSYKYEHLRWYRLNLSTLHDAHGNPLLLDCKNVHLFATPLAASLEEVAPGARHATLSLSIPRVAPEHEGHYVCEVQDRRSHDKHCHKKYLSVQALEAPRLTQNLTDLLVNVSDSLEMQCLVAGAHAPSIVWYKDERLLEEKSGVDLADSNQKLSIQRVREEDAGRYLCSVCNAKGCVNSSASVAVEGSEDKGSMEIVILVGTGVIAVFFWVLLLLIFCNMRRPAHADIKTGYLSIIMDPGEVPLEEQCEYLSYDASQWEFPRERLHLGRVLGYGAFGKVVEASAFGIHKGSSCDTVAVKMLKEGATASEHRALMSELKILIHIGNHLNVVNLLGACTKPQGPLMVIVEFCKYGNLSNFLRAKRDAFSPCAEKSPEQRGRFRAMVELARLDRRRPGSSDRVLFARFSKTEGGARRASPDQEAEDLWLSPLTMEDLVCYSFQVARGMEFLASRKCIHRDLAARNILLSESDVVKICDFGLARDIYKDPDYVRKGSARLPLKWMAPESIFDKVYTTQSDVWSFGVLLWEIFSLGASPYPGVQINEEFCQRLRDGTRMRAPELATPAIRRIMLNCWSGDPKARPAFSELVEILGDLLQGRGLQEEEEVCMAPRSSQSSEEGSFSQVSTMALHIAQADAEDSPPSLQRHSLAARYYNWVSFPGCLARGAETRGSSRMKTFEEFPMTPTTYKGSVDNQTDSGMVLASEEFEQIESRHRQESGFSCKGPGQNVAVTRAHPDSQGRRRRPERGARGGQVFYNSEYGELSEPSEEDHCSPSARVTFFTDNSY

`COc1cc2nccc(Oc3ccc(NC(=O)Nc4cc(C)on4)c(Cl)c3)c2cc1OC` [tivozanib, N-{2-chloro-4-[(6,7-dimethoxy-4-quinolyl)oxy]-phenyl}-N′-(5-methyl-3-isoxazolyl)urea]: the inhibitory activity result at VEGF receptor 3 is given as “picomolar”. Also, the antitumor activity result with preclinical models was “exhibits antitumor activity”. In addition, in assay [1], the “interim results of clinical trial” value is “positive interim results”. Also, in assay [2] (5 or 20 mg/kg daily by oral gavage), the “variation in response among tumors” value is on record as “significant tumor-to-tumor variation in response”. For the same compound, in assay [2] (setting [3]), the “number of tumors classified as non-responsive (tivozanib resistant tumors)” value was 18 and the “number of tumors classified as responsive (tivozanib sensitive tumors)” value is given as “eight”. Also, in assay [2] (responder tumors, 5 mg/kg daily by oral gavage), the “tumor progression by caliper measurement” value is given as “no tumor progression”. In addition, in assay [2] (responder tumors, 5 mg/kg daily by oral gavage, except the peripheries), the “tumor killing (by histology)” value is “close to complete tumor killing”.
